This note sets out measurements from ChEMBL document CHEMBL4130462, “Natural isoflavone biochanin A as a template for the design of new and potent 3-phenylquinolone efflux inhibitors against Mycobacterium avium” (Eur J Med Chem, 2017).

Converted amounts (≈) assume the structure as drawn.

Data set [1] has as its system Mycolicibacterium smegmatis. The experiment in a line: Antimycobacterial activity against Mycobacterium smegmatis str. MC2 155 assessed as reduction in bacterial viability incubated for 3 days by MTT assay. Format: organism-based. The following applies: 72 h. A general note: Tetrazolium dyes change colour on reduction, which living cells bring about.
Data set [2] has as its system Mycobacterium avium. The conditions noted are these: 72 h.
Description: Antimycobacterial activity against Mycobacterium avium 104 assessed as reduction in bacterial viability incubated for 3 days by MTT assay
Data set [3] relates to Mycobacterium avium. As to the kind of experiment: Antimycobacterial activity against Mycobacterium avium isolate MAV1 assessed as reduction in bacterial viability incubated for 3 days by MTT assay. The following applies: in vitro, 72 h. Type of data set: organism-based.
The subject of data set [4] is Mycobacterium avium. As to the kind of experiment: Antimycobacterial activity against Mycobacterium avium isolate MAV3 assessed as reduction in bacterial viability incubated for 3 days by MTT assay. Type of data set: organism-based. The following applies: 72 h.
Data set [5] has as its system Mycobacterium avium. The experiment in a line: Antimycobacterial activity against Mycobacterium avium isolate MAV4 assessed as reduction in bacterial viability incubated for 3 days by MTT assay. Type of data set: organism-based. The conditions noted are these: 72 h.
Data set [6] relates to Mycobacterium avium. The following applies: in vivo, 72 h.
Description: Antimycobacterial activity against Mycobacterium avium 104 mc'2 3 assessed as reduction in bacterial viability incubated for 3 days by MTT assay
Data set [7] relates to Mycobacterium avium. The experiment in a line: Antimycobacterial activity against Mycobacterium avium ATCC 25291 assessed as reduction in bacterial viability incubated for 3 days by MTT assay. Format: organism-based. The following applies: mycobacterium avium subsp. avium atcc 25291, 72 h.
The subject of data set [8] is Mycobacterium avium. As to the kind of experiment: Antimycobacterial activity against Mycobacterium avium isolate MAV2 assessed as reduction in bacterial viability incubated for 3 days by MTT assay. Type of data set: organism-based. The conditions noted are these: 72 h.
Data set [9] relates to Mycobacterium avium. The conditions noted are these: in vivo, 72 h. This is another data set of the same source.
Description: Antimycobacterial activity against Mycobacterium avium 104 mc'2 4 assessed as reduction in bacterial viability incubated for 3 days by MTT assay
Data set [10] relates to Mycobacterium avium. The experiment in a line: Inhibition of multidrug resistance efflux pump in Mycobacterium avium 104 mc'2 3 assessed as increase in EtBr accumulation by measuring relative final fluorescence at 1/4 times MIC incubated for 60 mins by real-time fluorometry relative to control.
Data set [11] deals with Mycobacterium avium. As to the kind of experiment: Inhibition of multidrug resistance efflux pump in Mycobacterium avium 104 assessed as increase in EtBr accumulation by measuring relative final fluorescence at 1/4 times MIC incubated for 60 mins by real-time fluorometry relative to control.
Data set [12] has as its system Mycobacterium avium. As to the kind of experiment: Inhibition of multidrug resistance efflux pump in Mycobacterium avium 104 mc'2 4 assessed as increase in EtBr accumulation by measuring relative final fluorescence at 1/4 times MIC incubated for 60 mins by real-time fluorometry relative to control.
The subject of data set [13] is Mycolicibacterium smegmatis MC2 155. The experiment in a line: Inhibition of multidrug resistance efflux pump in Mycobacterium smegmatis str. MC2 155 assessed as increase in EtBr accumulation by measuring relative final fluorescence at <= 1/2 times MIC incubated for 60 mins by real-time fluorometry relative to control.
Data set [14] can be described thus: Cytotoxicity in human monocyte-derived macrophages assessed as reduction in cell viability incubated for 3 days by alamar blue dye based assay. The conditions noted are these: for CC50 at 72 h: human monocyte-derived macrophages; for MTC: macrophage cell line, 72 h. The arrangement: species or system Macrophage cell line. Background: The colour change of resazurin is a common sign of viable cells or microbes.

As for `CCCOc1ccc(-c2cn(C)c3ccccc3c2=O)cc1`, the MIC in data set [1] was found to be 256 µg/mL (≈ 873 µM).

Consider `CC1COc2c(N3CCN(C)CC3)c(F)cc3c(=O)c(C(=O)O)cn1c23` (stereo not given) [OFLOXACIN], for which the MIC against Mycobacterium avium [2] came to 16 µg/mL (≈ 44.3 µM); in the data set on Mycobacterium avium [3], 4 µg/mL (≈ 11.1 µM); with Mycobacterium avium [4], 16 µg/mL (≈ 44.3 µM); in the data set with Mycobacterium avium [5] it was 16 µg/mL (≈ 44.3 µM); in the data set on Mycobacterium avium [6], 16 µg/mL (≈ 44.3 µM); in the data set with Mycobacterium avium [7], 64 µg/mL (≈ 177 µM). The values for the MIC in the data set on Mycobacterium avium [8] and in the data set with Mycobacterium avium [9] were 4 µg/mL (≈ 11.1 µM) and 16 µg/mL (≈ 44.3 µM), respectively.

Take `O=C(O)c1cn(C2CC2)c2cc(N3CCNCC3)c(F)cc2c1=O` [CIPROFLOXACIN]: the MIC in the data set on Mycobacterium avium [2] was 16 µg/mL (≈ 48.3 µM); in the data set with Mycobacterium avium [3], 2 µg/mL (≈ 6.04 µM); in the data set on Mycobacterium avium [4], 32 µg/mL (≈ 96.6 µM); in the data set with Mycobacterium avium [5], 32 µg/mL (≈ 96.6 µM); in the data set with Mycobacterium avium [6], 16 µg/mL (≈ 48.3 µM); with Mycobacterium avium [7] it was 32 µg/mL (≈ 96.6 µM). In addition, the figures for the MIC in the data set with Mycobacterium avium [8] and with Mycobacterium avium [9] were 8 µg/mL (≈ 24.1 µM) and 16 µg/mL (≈ 48.3 µM), respectively.

Regarding `CCCOc1ccc(-c2cn(CCN3CCN(Cc4ccccc4)CC3)c3ccccc3c2=O)cc1`, the MIC worked out at 256 µg/mL (≈ 532 µM) against Mycobacterium avium [2], 64 µg/mL (≈ 133 µM) in data set [1], 256 µg/mL (≈ 532 µM) with Mycobacterium avium [6] and 256 µg/mL (≈ 532 µM) in the data set with Mycobacterium avium [9]. The Ratio in the data set with Mycobacterium avium [10] amounted to 2.93; with Mycobacterium avium [11], 3.19; with Mycobacterium avium [12] it was 1.96.

Consider `CCCOc1ccc(-c2cn(CCN3CCNCC3)c3ccccc3c2=O)cc1`, for which the Ratio in [13] worked out at 1.42. The MIC (against Mycobacterium avium [2]; in data set [1]; with Mycobacterium avium [6]; in the data set with Mycobacterium avium [9]) was over 256 µg/mL throughout.

On to `CC[n+]1c(-c2ccccc2)c2cc(N)ccc2c2ccc(N)cc21.[Br-]` [HOMIDIUM BROMIDE], for which the MIC against Mycobacterium avium [2] stood at 25 µg/mL; with Mycobacterium avium [3], 25 µg/mL; with Mycobacterium avium [4], 12.5 µg/mL; in the data set with Mycobacterium avium [5], 50 µg/mL; with Mycobacterium avium [6] it was 25 µg/mL; in the data set with Mycobacterium avium [7], 50 µg/mL. The MIC in the data set with Mycobacterium avium [8] amounted to 12.5 µg/mL; with Mycobacterium avium [9] it was 25 µg/mL.

What is called CC50 is the concentration at which the toxic effect on the cells reaches its halfway point. Take `COc1ccc(-c2coc3cc(O)cc(O)c3c2=O)cc1` [BIOCHANIN]: the Ratio in data set [13] was 0.63. Moreover, the half-maximal cytotoxic concentration (CC50) at 72 h in data set [14] stood at 50.4 µM. For the same compound, the MTC in [14] amounted to 20 µM. For the same compound, the MIC (with Mycobacterium avium [2]; in data set [1]; with Mycobacterium avium [6]; against Mycobacterium avium [9]) was over 64 µg/mL throughout.

Turning to `COc1ccc(CCN(C)CCCC(C#N)(c2ccc(OC)c(OC)c2)C(C)C)cc1OC` (stereo not given), in data set [14], the 50% cytotoxic concentration (CC50) at 72 h is 117 µM. Besides, in data set [14], the MTC was 10 µM. In addition, the MIC was 800 µg/mL (≈ 1760 µM) against Mycobacterium avium [2]; 400 µg/mL (≈ 880 µM) in the data set with Mycobacterium avium [3]; 800 µg/mL (≈ 1760 µM) with Mycobacterium avium [4]; 800 µg/mL (≈ 1760 µM) in data set [1]; 800 µg/mL (≈ 1760 µM) with Mycobacterium avium [5]; 800 µg/mL (≈ 1760 µM) in the data set on Mycobacterium avium [6]. Also, the MIC in the data set on Mycobacterium avium [7] amounted to 800 µg/mL (≈ 1760 µM); in the data set on Mycobacterium avium [8], 400 µg/mL (≈ 880 µM); in the data set with Mycobacterium avium [9], 800 µg/mL (≈ 1760 µM).

`CCCOc1ccc(-c2cn(CCCN(C)C)c3ccccc3c2=O)cc1`: the Ratio in data set [13] worked out at 1.38. The MIC (in the data set with Mycobacterium avium [2]; in [1]; in the data set with Mycobacterium avium [6]; against Mycobacterium avium [9]) was over 256 µg/mL throughout.

For `CC[C@H]1OC(=O)[C@H](C)[C@@H](O[C@H]2C[C@@](C)(OC)[C@@H](O)[C@H](C)O2)[C@H](C)[C@@H](O[C@@H]2O[C@H](C)C[C@H](N(C)C)[C@H]2O)[C@](C)(O)C[C@@H](C)C(=O)[C@H](C)[C@@H](O)[C@]1(C)O` [ERYTHROMYCIN], the MIC is 512 µg/mL (≈ 698 µM) in the data set with Mycobacterium avium [4]; 512 µg/mL (≈ 698 µM) in the data set with Mycobacterium avium [5]; over 512 µg/mL with Mycobacterium avium [6]; over 512 µg/mL in the data set with Mycobacterium avium [8]; over 512 µg/mL in the data set on Mycobacterium avium [9].

Take `CC[C@H]1OC(=O)[C@H](C)[C@@H](O[C@H]2C[C@@](C)(OC)[C@@H](O)[C@H](C)O2)[C@H](C)[C@@H](O[C@@H]2O[C@H](C)C[C@H](N(C)C)[C@H]2O)[C@](C)(O)C[C@@H](C)CN(C)[C@H](C)[C@@H](O)[C@]1(C)O` [AZITHROMYCIN]: the MIC against Mycobacterium avium [2] is over 512 µg/mL; in the data set with Mycobacterium avium [3], 256 µg/mL (≈ 342 µM); with Mycobacterium avium [4], 256 µg/mL (≈ 342 µM); in the data set with Mycobacterium avium [5], 256 µg/mL (≈ 342 µM); in the data set with Mycobacterium avium [6] it was over 512 µg/mL; in the data set on Mycobacterium avium [7], 64 µg/mL (≈ 85.4 µM). Besides, the MIC in the data set with Mycobacterium avium [8] and with Mycobacterium avium [9] was over 512 µg/mL each time.

In the case of `CC[C@H]1OC(=O)[C@H](C)[C@@H](O[C@H]2C[C@@](C)(OC)[C@@H](O)[C@H](C)O2)[C@H](C)[C@@H](O[C@@H]2O[C@H](C)C[C@H](N(C)C)[C@H]2O)[C@](C)(OC)C[C@@H](C)C(=O)[C@H](C)[C@@H](O)[C@]1(C)O` [CLARITHROMYCIN], the MIC in the data set with Mycobacterium avium [2] is 8 µg/mL (≈ 10.7 µM); in the data set on Mycobacterium avium [3], 4 µg/mL (≈ 5.35 µM); with Mycobacterium avium [4], 16 µg/mL (≈ 21.4 µM); in the data set on Mycobacterium avium [5], 8 µg/mL (≈ 10.7 µM); in the data set with Mycobacterium avium [6], over 512 µg/mL; with Mycobacterium avium [7] it was 8 µg/mL (≈ 10.7 µM). Further, the MIC in the data set with Mycobacterium avium [8] was over 1024 µg/mL; against Mycobacterium avium [9] it was over 512 µg/mL.

As for `CCCOc1ccc(-c2c[nH]c3ccccc3c2=O)cc1`, the MIC entry (against Mycobacterium avium [2]; in data set [1]; against Mycobacterium avium [6]; against Mycobacterium avium [9]) was “Nd(Insoluble)” throughout.
